From patent US20250353891A1 (MEDIMMUNE LIMITED, priority 2022, published 2025)
Starred links: 1 amine or outer side, 2 acyl side, 3 side chain; linkers in the order of their positions; H or OH if unused. Non-standard residues stand in square brackets, D forms with d. Residues, ends and D or L forms follow the SMILES beside them. Groups on a side chain read outwards from the residue. *: point of attachment. C18 diacid = O=C(O)CCCCCCCCCCCCCCCCC(=O)*; γGlu = O=C(O)[C@H](CCC(=O)[*:2])N[*:1]; αMeF = C[C@](N)(Cc1ccccc1)C(=O)O; AEEA = NCCOCCOCC(=O)O; Aib = CC(C)(N)C(=O)O

How the values were obtained:
[1] = target: human GLP-1 receptor (hGLP-1R) (Homo sapiens, UniProt P43220); assay: cAMP production (HTRF) in CHO cells expressing hGLP-1R; type: cell-based; parameters: expressed in transfected cells; conditions: for EC50: Table 7, peptides modified at position 20, cAMP in CHO hGLP-1R cells, geometric mean, read-out: hGLP-1R EC50; for % Relative Potency Ratio: Table 7, % GLP-1R activity relative to GLP-1 / % GlucR activity relative to glucagon
Sequence of human GLP-1 receptor (hGLP-1R) (P43220 24-463): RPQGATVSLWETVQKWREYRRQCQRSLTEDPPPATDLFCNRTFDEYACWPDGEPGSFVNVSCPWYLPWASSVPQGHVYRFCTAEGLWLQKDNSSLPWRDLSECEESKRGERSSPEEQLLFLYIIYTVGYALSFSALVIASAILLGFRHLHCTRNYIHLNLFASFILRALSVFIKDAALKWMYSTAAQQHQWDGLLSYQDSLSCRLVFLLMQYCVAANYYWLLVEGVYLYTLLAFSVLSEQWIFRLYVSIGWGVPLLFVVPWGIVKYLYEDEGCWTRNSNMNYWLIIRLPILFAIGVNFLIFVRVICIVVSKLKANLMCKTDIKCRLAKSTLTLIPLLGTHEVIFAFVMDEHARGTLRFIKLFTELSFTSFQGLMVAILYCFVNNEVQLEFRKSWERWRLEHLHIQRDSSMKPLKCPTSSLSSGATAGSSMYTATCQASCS
Summary of the method: (§1)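 Potency values represent EC50 from 4-parameter logistic curves of HTRF % Delta F signal. Receptor-expressing CHO cells (hGCGR 2×10^5 cells/mL, hGLP-1R 1×10^5 cells/mL) were exposed for 30 min at room temperature before two-step cAMP detection.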

[2] = target: human glucagon receptor (hGCGR) (Homo sapiens, UniProt P47871); assay: cAMP production (HTRF) in CHO cells expressing hGCGR; type: cell-based; parameters: expressed in transfected cells; conditions: Table 7, peptides modified at position 20; cAMP in CHO hGCGR cells; geometric mean; read-out: hGluc-R EC50
Sequence of human glucagon receptor (hGCGR) (P47871 26-477): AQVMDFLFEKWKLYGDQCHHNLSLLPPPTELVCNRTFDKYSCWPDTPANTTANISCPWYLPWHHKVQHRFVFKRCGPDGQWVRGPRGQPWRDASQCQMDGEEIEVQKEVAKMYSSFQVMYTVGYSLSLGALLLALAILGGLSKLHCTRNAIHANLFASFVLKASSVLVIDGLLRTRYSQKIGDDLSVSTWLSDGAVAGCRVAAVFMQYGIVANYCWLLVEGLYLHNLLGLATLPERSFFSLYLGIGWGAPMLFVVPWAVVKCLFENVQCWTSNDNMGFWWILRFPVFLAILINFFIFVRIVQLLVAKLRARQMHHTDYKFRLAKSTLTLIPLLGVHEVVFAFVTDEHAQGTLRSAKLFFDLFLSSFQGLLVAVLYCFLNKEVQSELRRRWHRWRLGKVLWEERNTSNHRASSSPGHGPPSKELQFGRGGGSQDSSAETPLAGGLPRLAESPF
Summary of the method: as §1

SMILES	EC50 [1] [nM]	EC50 [2] [nM]	% Relative Potency Ratio [1]
CC[C@H](C)[C@H](NC(=O)C(C)(C)NC(=O)[C@H](CCC(N)=O)NC(=O)[C@@H](NC(=O)[C@](C)(Cc1ccccc1)NC(=O)[C@H](CC(=O)O)NC(=O)[C@H](CCCCNC(=O)COCCOCCNC(=O)COCCOCCNC(=O)CC[C@H](NC(=O)CCCCCCCCCCCCCCCCC(=O)O)C(=O)O)NC(=O)[C@H](C)NC(=O)[C@H](C)NC(=O)[C@H](CCCNC(=N)N)NC(=O)[C@H](CO)NC(=O)[C@H](CC(=O)O)NC(=O)[C@H](CC(C)C)NC(=O)[C@](C)(Cc1ccccc1)NC(=O)[C@H](CCCCN)NC(=O)[C@H](CO)NC(=O)[C@@H](NC(=O)[C@H](CC(=O)O)NC(=O)[C@H](CO)NC(=O)[C@@H](NC(=O)[C@](C)(Cc1ccccc1)NC(=O)[C@H](CO)NC(=O)CNC(=O)[C@H](CCC(N)=O)NC(=O)[C@@H](CO)NC(=O)[C@@H](N)Cc1c[nH]cn1)[C@@H](C)O)C(C)C)C(C)C)C(=O)N[C@@H](C)C(=O)N[C@@H](CC(N)=O)C(=O)N[C@H](C(N)=O)[C@@H](C)O [Peptide 330] (H-H[dS]QGS[αMeF]TSDVSK[αMeF]LDSRAAK([AEEA-AEEA-γGlu-C18 diacid])D[αMeF]VQ[Aib]IANT-NH2)	0.488	> 25.6	–
CC(C)C[C@H](NC(=O)[C@H](Cc1c[nH]c2ccccc12)NC(=O)[C@H](CCCNC(=N)N)NC(=O)[C@@H](NC(=O)[C@H](Cc1ccccc1)NC(=O)[C@H](CC(=O)O)NC(=O)[C@H](CCCCNC(=O)COCCOCCNC(=O)COCCOCCNC(=O)CC[C@H](NC(=O)CCCCCCCCCCCCCCCCC(=O)O)C(=O)O)NC(=O)[C@H](C)NC(=O)[C@H](CCCNC(=N)N)NC(=O)[C@H](CCCNC(=N)N)NC(=O)[C@H](CO)NC(=O)[C@H](CC(=O)O)NC(=O)[C@H](CC(C)C)NC(=O)[C@](C)(Cc1ccccc1)NC(=O)[C@H](CCCCN)NC(=O)[C@H](CO)NC(=O)[C@@H](NC(=O)[C@H](CC(=O)O)NC(=O)[C@H](CO)NC(=O)[C@@H](NC(=O)[C@H](Cc1ccccc1)NC(=O)[C@@H](NC(=O)CNC(=O)[C@H](CCC(N)=O)NC(=O)C(C)(C)NC(=O)[C@@H](N)Cc1c[nH]cn1)[C@@H](C)O)[C@@H](C)O)C(C)C)C(C)C)C(=O)N[C@@H](CC(C)C)C(=O)N[C@@H](CCC(=O)O)C(=O)NC(C)(C)C(=O)NCC(=O)O [Peptide 331]	0.0626	0.0666	2.1
CC(C)C[C@H](NC(=O)[C@H](Cc1c[nH]c2ccccc12)NC(=O)[C@H](CCC(N)=O)NC(=O)[C@@H](NC(=O)[C@H](Cc1ccccc1)NC(=O)[C@H](CC(=O)O)NC(=O)[C@H](CCCCNC(=O)COCCOCCNC(=O)COCCOCCNC(=O)CC[C@H](NC(=O)CCCCCCCCCCCCCCCCC(=O)O)C(=O)O)NC(=O)[C@H](C)NC(=O)[C@H](CCCNC(=N)N)NC(=O)[C@H](CCCNC(=N)N)NC(=O)[C@H](CO)NC(=O)[C@H](CC(=O)O)NC(=O)[C@H](CC(C)C)NC(=O)[C@](C)(Cc1ccccc1)NC(=O)[C@H](CCCCN)NC(=O)[C@H](CO)NC(=O)[C@@H](NC(=O)[C@H](CC(=O)O)NC(=O)[C@H](CO)NC(=O)[C@@H](NC(=O)[C@H](Cc1ccccc1)NC(=O)[C@@H](NC(=O)CNC(=O)[C@H](CCC(N)=O)NC(=O)C(C)(C)NC(=O)[C@@H](N)Cc1c[nH]cn1)[C@@H](C)O)[C@@H](C)O)C(C)C)C(C)C)C(=O)N[C@@H](CC(C)C)C(=O)N[C@@H](CCC(=O)O)C(=O)NC(C)(C)C(=O)NCC(=O)O [Peptide 332]	0.0775	0.0589	1.5
CC(C)C[C@H](NC(=O)[C@H](Cc1c[nH]c2ccccc12)NC(=O)[C@H](CCC(N)=O)NC(=O)[C@@H](NC(=O)[C@H](Cc1ccccc1)NC(=O)[C@H](CC(=O)O)NC(=O)[C@H](CCCCNC(=O)COCCOCCNC(=O)COCCOCCNC(=O)CC[C@H](NC(=O)CCCCCCCCCCCCCCCCC(=O)O)C(=O)O)NC(=O)[C@H](C)NC(=O)[C@H](CCCNC(=N)N)NC(=O)[C@H](CCCNC(=N)N)NC(=O)[C@H](CO)NC(=O)[C@H](CC(=O)O)NC(=O)[C@H](CC(C)C)NC(=O)[C@](C)(Cc1ccccc1)NC(=O)[C@H](CCCCN)NC(=O)[C@H](CO)NC(=O)[C@@H](NC(=O)[C@H](CC(=O)O)NC(=O)[C@H](CO)NC(=O)[C@@H](NC(=O)[C@H](Cc1ccccc1)NC(=O)[C@@H](NC(=O)CNC(=O)[C@H](CCC(N)=O)NC(=O)C(C)(C)NC(=O)[C@@H](N)Cc1c[nH]cn1)[C@@H](C)O)[C@@H](C)O)C(C)C)C(C)C)C(=O)N[C@@H](CC(C)C)C(=O)NC(C)(C)C(=O)N[C@H](C(=O)N[C@@H](CCC(=O)O)C(=O)O)[C@@H](C)O [Peptide 333]	0.135	0.213	3.1

Continued, values first:

EC50 [1] [nM]	EC50 [2] [nM]	% Relative Potency Ratio [1]	SMILES
0.25	0.462	3.7	CC(C)C[C@H](NC(=O)[C@H](Cc1c[nH]c2ccccc12)NC(=O)[C@H](CCC(N)=O)NC(=O)[C@@H](NC(=O)[C@H](Cc1ccccc1)NC(=O)[C@H](CC(=O)O)NC(=O)[C@H](CCCCNC(=O)CC[C@H](NC(=O)CCCCCCCCCCCCCCCCC(=O)O)C(=O)O)NC(=O)[C@H](C)NC(=O)[C@H](CCCNC(=N)N)NC(=O)[C@H](CCCNC(=N)N)NC(=O)[C@H](CO)NC(=O)[C@H](CC(=O)O)NC(=O)[C@H](CC(C)C)NC(=O)[C@](C)(Cc1ccccc1)NC(=O)[C@H](CCCCN)NC(=O)[C@H](CO)NC(=O)[C@H](Cc1ccc(O)cc1)NC(=O)[C@H](CC(=O)O)NC(=O)[C@H](CO)NC(=O)[C@@H](NC(=O)[C@H](Cc1ccccc1)NC(=O)[C@@H](NC(=O)CNC(=O)[C@H](CCC(N)=O)NC(=O)C(C)(C)NC(=O)[C@@H](N)Cc1c[nH]cn1)[C@@H](C)O)[C@@H](C)O)C(C)C)C(=O)N[C@@H](C)C(=O)NC(C)(C)C(=O)N[C@@H](CCC(=O)O)C(=O)O [Peptide 334]
1.06	0.312	0.6	CC(C)C[C@H](NC(=O)[C@H](Cc1c[nH]c2ccccc12)NC(=O)[C@H](CCC(N)=O)NC(=O)[C@@H](NC(=O)[C@H](Cc1ccccc1)NC(=O)[C@H](CC(=O)O)NC(=O)[C@H](CCCCNC(=O)CC[C@H](NC(=O)CCCCCCCCCCCCCCCCC(=O)O)C(=O)O)NC(=O)[C@H](C)NC(=O)[C@H](CCCNC(=N)N)NC(=O)[C@H](CCCNC(=N)N)NC(=O)[C@H](CO)NC(=O)[C@H](CC(=O)O)NC(=O)[C@H](CC(C)C)NC(=O)[C@](C)(Cc1ccccc1)NC(=O)[C@H](CCCCN)NC(=O)[C@H](CO)NC(=O)[C@H](Cc1ccc(O)cc1)NC(=O)[C@H](CC(=O)O)NC(=O)[C@H](CO)NC(=O)[C@@H](NC(=O)[C@H](Cc1ccccc1)NC(=O)[C@@H](NC(=O)CNC(=O)[C@H](CCC(N)=O)NC(=O)C(C)(C)NC(=O)[C@@H](N)Cc1c[nH]cn1)[C@@H](C)O)[C@@H](C)O)C(C)C)C(=O)N[C@@H](CC(C)C)C(=O)N[C@@H](CCC(=O)O)C(=O)NC(C)(C)C(=O)NCC(=O)O [Peptide 335]
0.632	0.305	1.0	CC[C@H](C)[C@H](NC(=O)[C@H](CC(C)C)NC(=O)[C@H](Cc1c[nH]c2ccccc12)NC(=O)[C@H](CCC(N)=O)NC(=O)[C@@H](NC(=O)[C@H](Cc1ccccc1)NC(=O)[C@H](CC(=O)O)NC(=O)[C@H](CCCCNC(=O)CC[C@H](NC(=O)CCCCCCCCCCCCCCCCC(=O)O)C(=O)O)NC(=O)[C@H](C)NC(=O)[C@H](CCCNC(=N)N)NC(=O)[C@H](CCCNC(=N)N)NC(=O)[C@H](CO)NC(=O)[C@H](CC(=O)O)NC(=O)[C@H](CC(C)C)NC(=O)[C@](C)(Cc1ccccc1)NC(=O)[C@H](CCCCN)NC(=O)[C@H](CO)NC(=O)[C@H](Cc1ccc(O)cc1)NC(=O)[C@H](CC(=O)O)NC(=O)[C@H](CO)NC(=O)[C@@H](NC(=O)[C@H](Cc1ccccc1)NC(=O)[C@@H](NC(=O)CNC(=O)[C@H](CCC(N)=O)NC(=O)C(C)(C)NC(=O)[C@@H](N)Cc1c[nH]cn1)[C@@H](C)O)[C@@H](C)O)C(C)C)C(=O)N[C@@H](CO)C(=O)N[C@@H](CCC(=O)O)C(=O)O [Peptide 336] (H-H[Aib]QGTFTSDYSK[αMeF]LDSRRAK([γGlu-C18 diacid])DFVQWLISE-OH; N-terminus assumed)
0.4	0.0896	0.4	CC(C)C[C@H](NC(=O)[C@H](Cc1c[nH]c2ccccc12)NC(=O)[C@H](CCC(N)=O)NC(=O)[C@@H](NC(=O)[C@H](Cc1ccccc1)NC(=O)[C@H](CC(=O)O)NC(=O)[C@H](CCCCNC(=O)CC[C@H](NC(=O)CCCCCCCCCCCCCCCCC(=O)O)C(=O)O)NC(=O)[C@H](C)NC(=O)[C@H](CCCNC(=N)N)NC(=O)[C@H](CCCNC(=N)N)NC(=O)[C@H](CO)NC(=O)[C@H](CC(=O)O)NC(=O)[C@H](CC(C)C)NC(=O)[C@](C)(Cc1ccccc1)NC(=O)[C@H](CCCCN)NC(=O)[C@H](CO)NC(=O)[C@H](Cc1ccc(O)cc1)NC(=O)[C@H](CC(=O)O)NC(=O)[C@H](CO)NC(=O)[C@@H](NC(=O)[C@H](Cc1ccccc1)NC(=O)[C@@H](NC(=O)CNC(=O)[C@H](CCC(N)=O)NC(=O)C(C)(C)NC(=O)[C@@H](N)Cc1c[nH]cn1)[C@@H](C)O)[C@@H](C)O)C(C)C)C(=O)N[C@@H](CC(C)C)C(=O)NC(C)(C)C(=O)N[C@H](C(=O)O)[C@@H](C)O [Peptide 337]
